“And” between values parts separate entries of the source, which are not always exact repeats. Equal values may be shown once.
Assays:
[1] = tested on: human colorectal carcinoma (HCT116) cells; assay: SRB cytotoxic assay, HCT116; type: cell-based; details: HCT-116, single dose 100 µg/mL, 48 h, read-out: %Inhibition at100 µg/mL HCT116
Procedure: All the prepared compounds were screened at a concentration of 100 µg/mL against six different human cell lines: human laryngeal carcinoma (HEP2), human colorectal carcinoma (HCT116), human breast carcinoma (MCF7), human Lung carcinoma (A549), human liver carcinoma (HEPG2), and normal African Green monkey kidney cell line (VERO). Doxorubicin was used as a positive control for comparison purposes.
The human laryngeal carcinoma (HEP2), colorectal carcinoma (HCT116), breast carcinoma (MCF7), Lung carcinoma (A549), liver carcinoma (HEPG2), and normal African Green monkey kidney cell line (VERO) were purchased from American Tissue Culture Collection (Rockville, MD, USA). The cells were treated for 48 h with a single dose (100 µg/mL) of all the tested chalcones. […] In brief, the cells were seeded in a 96-well microtiter plate at a concentration of 5×10^3 cells/well in 100 µL fresh RPMI-1640 medium and left to attach to the plates for 24 h. Then, cells were incubated with 100 μL of different concentrations (50, 25, 12.5, 6.25, and 0.0 µg/mL) of 5c in triplicate at 37 °C for 48 h. After that, the cells were fixed with 10 µL cold 100% Trichloroacetic acid (TCA) for 1h at 4 °C. The wells were then washed 1 time with distilled water using (automatic Tecan washer, Germany) and stained for 30 min at room temperature with 50 µL 0.4% SRB dissolved in 1% acetic acid. The plates were air-dried and the dye was solubilized with 100 µl/well of 1M tris base (pH 10.5) for 5 min. The optical density (O.D.) of each well was measured spectrophotometrically at 570 nm with an ELISA microplate reader (Sunrise Tecan reader, Germany) with automatic shaking for 30 seconds before reading. The mean background absorbance was subtracted automatically and mean values for each drug concentration were calculated. The percentage of cell survival was calculated as follows: Survival fraction= O.D. (treated cells)/ O.D. (control cells) (Bhat et al. [2023]).

Malondialdehyde (MDA) = assay: ELISA, MDA concentration; type: cell-based, human
Procedure: The concentrations of matrix metalloproteinase-2 (MMP2), matrix metalloproteinase-9 (MMP9), Bcl2, BAX, P53, Malondialdehyde (MDA), Glutathione (GSH), caspase 8, caspase 9 and IL-6 were measured quantitatively in 5c treated MCF7 and HEP2 cells using ELISA (Enzyme-Linked Immunosorbent Assay) (Table 4). Gelatinases are a collective word for MMP-2 and MMP-9, where MMP-2 is gelatinase-A and MMP-9 is gelatinase-B. Solid tumor invasion, metastasis, and angiogenesis have long been linked to gelatinases (Das et al. [2021]). […] Bcl2 is a crucial protein that targets apoptosis inhibition. It is regarded as a predictive biomarker or therapeutic target in the diagnosis of cancer due to its broad expression in a variety of cancers (Porter et al. [2009]). […] The pro-apoptotic protein BAX permeabilizes the mitochondrial outer membrane by changing from a cytosolic monomer to a hazardous oligomer triggering the apoptosis process (Fulda and Debatin [2006]). […] P53 transcription factor performs an essential tumor suppressor role by coordinating a wide range of physiological responses, including DNA repair, cell cycle arrest, cellular senescence, cell death, cell differentiation, and metabolism (Liebl and Hofmann [2021]). It was activated in MCF7 and HEP2-treated cells with values (4.28 and 3.109 ng/mL), respectively, compared to their controls (3.44 and 2.06 ng/mL). […]

COc1ccc(NC(=O)COc2ccc(C=CC(=O)c3cccs3)cc2)cc1 [Compound 5c, N-(4-Methoxyphenyl)-2-(4-(3-oxo-3-(thiophen-2-yl)prop-1-en-1-yl)phenoxy)acetamide]
inhibition at 100 µg/mL [1]: 41.9 ± 1.8%
MDA concentration (Malondialdehyde (MDA); 5c treated HEP2 cells, untreated 17.44±0.309): 11.988 nM and 11.988 ± 0.178 nM
MDA concentration (Malondialdehyde (MDA); 5c treated MCF7 cells, untreated 15.79±0.178): 8.79 nM and 8.79 ± 0.309 nM
